Experimental data taken from patent US20250018068A1, “4H-IMIDAZO[1,5-B]PYRAZOLE DERIVATIVES FOR DIAGNOSIS” (AC IMMUNE SA, priority 2021, published 2025).
“Also recorded” adds a separate entry of the source. Counter-ions that a name gives are not always drawn.

Experiments:
[1] = molecular target: T1, alpha-synuclein aggregates (Lewy bodies and Lewy neurites) (Homo sapiens, UniProt P37840); test: High resolution micro-autoradiography, target engagement in alpha-synucleinopathy tissues; format: binding; details: frozen human brain sections, PD, MSA, DLB, LBV, PDD; 10 nM or 20 nM
T1 construct: performed on frozen human brain sections from different alpha-synucleinopathy cases; from tissue; host or cells: frozen human brain sections (PD, PDD, MSA, DLB, LBV)
Description: (§1) The protocol was adapted from Marquie et al., 2015. Sections were incubated with tritiated example compound 1 ([^3H]-Example-1) at 10 nM or 20 nM or a reference Tau ligand ([^3H]-Tau-Ref at 20 nM for one hour at room temperature (RT). Sections were then washed as follows: One time in ice-cold 50 mM Tris-HCl pH 7.4 buffer for one minute, two times in 70% ice-cold ethanol for one minute, one time in ice-cold 50 mM Tris-HCl pH 7.4 buffer for one minute and finally rinsed briefly in ice-cold distilled water. Sections were subsequently dried and then exposed to Ilford Nuclear Emulsion Type K5 (Agar Scientific, AGP9281) in a light-proof slide storage box. After five days, the sections were developed by immersing them successively in the following solutions: 1.) Ilford Phenisol Developer (1:5 dilution in H2O, Agar Scientific, AGP9106), 2.) Ilfostop solution (1:20 dilution in H2O, Agar Scientific, AGP9104), 3.) Ilford Hypam Fixer (1:5 dilution in H2O, Agar Scientific, AGP9183) and finally rinsed with H2O.
When indicated, immunostaining was also performed on the same section. For image acquisition, sections were mounted using ProLong Gold Antifade reagent (Invitrogen P36930) and imaged on a Panoramic150 Slide Scanner (3DHistech) with a 20×objective capturing separately brightfield and fluorescent images. […]

Tau aggregates = test: High resolution micro-autoradiography on AD tissue containing pathological Tau aggregates; format: binding, human
Description: as §1
When indicated, immunostaining was also performed on the same section. For image acquisition, sections were mounted using ProLong Gold Antifade reagent (Invitrogen P36930) and imaged on a Panoramic150 Slide Scanner (3DHistech) with a 20×objective capturing separately brightfield and fluorescent images.

[2] = molecular target: T2, PD brain-derived alpha-synuclein aggregates (Homo sapiens, UniProt P37840); test: Saturation binding on PD brain-derived alpha-synuclein aggregates by micro-radiobinding; details: PD brain tissue homogenates
T2 construct: from tissue; host or cells: human PD donor brain, sarkosyl-insoluble pellet
Description: The procedure was adapted from the protocol described in Spillantini et al., 1998. Frozen tissue blocks from PD donors were thawed on ice and homogenized using a glass dounce homogenizer. The homogenate was then centrifuged at 11,000×g (12,700 RPM) in an ultracentrifuge (Beckman, XL100K) for 20 minutes at 4° C. using a pre-cooled 70.1 rotor (Beckman, 342184). Pellets were resuspended in extraction buffer [10 mM Tris-HCl pH 7.4, 10% sucrose, […], 1% protease inhibitor (Calbiochem 539131), 1 mM EGTA, 1% phosphatase inhibitor (Sigma P5726 and P0044)] and centrifuged at 15,000×g (14,800 RPM, a 70.1 Ti rotor) for 20 minutes at 4° C. […]
PD brain-derived alpha-synuclein aggregates were spotted onto microarray slides. […] Following exposure, phosphor storage screens were scanned with a laser imaging system (Typhoon FLA 7000) to readout the signal from the radiobinding experiments described above. Quantification of the signal was performed using the ImageJ software package. Non-specific signal was determined with an excess of non-radiolabelled reference ligand (Example-1 at 2 μM) and specific binding was calculated by subtracting the non-specific signal from the total signal. Kd values were calculated in GraphPad Prism7 by applying a nonlinear regression curve fit using a one site specific binding model.

[3] = molecular target: T3, pathological alpha-synuclein aggregates (Homo sapiens, UniProt P37840, G51D); test: Autoradiography on frozen human brain sections (specific binding, Kd)
T3 construct: Frozen human brain sections from one familial PD case; from tissue; host or cells: frozen human brain sections: SNCA (G51D) familial PD, PDD, MSA, LBV, non-demented controls
Description: (§2) Frozen human brain sections from one familial PD case (alpha-synuclein [SNCA] gene G51D missense mutation), labelled as SNCA (G51D), one PDD case, one MSA case, one LBV case and two non-demented control (NDC) cases were first briefly fixed for 15 minutes at 4° C. with 4% paraformaldehyde (Sigma, 252549) and washed three times for five minutes with PBS (Dulbecco's phosphate buffered saline, Sigma) at RT. All slides were then equilibrated for 20 minutes in 50 mM Tris-HCl pH 7.4 buffer prior to use in the experiment. Each brain section was incubated with a fixed concentration (10 nM) of tritiated example compound 1 ([^3H]-Example-1) or increasing concentrations of [^3H]-Example-1 in the range of 2.5 nM to 80 nM of tritiated compound in Tris-HCl buffer for two hours at RT (Total binding, ‘TB’). To determine non-specific (NSB) binding ([^3H]-Example-1 was mixed with 5 μM of non-radiolabelled compound (Example 1, self-block, ‘NSB’). The slides were washed and then exposed and scanned in a real-time autoradiography system (BeaQuant instrument, ai4R). Specific binding was determined by subtracting the non-specific signal from the total signal. Kd values were calculated in GraphPad Prism7 by applying a nonlinear regression curve fit using a one site specific binding model.

[4] = tested on: pathological alpha-synuclein aggregates; test: as above; details: 10 nM
Description: as §2

[5] = molecular target: T2, PD brain-derived alpha-synuclein aggregates; test: Micro-radiobinding competition assay for the determination of binding affinity; details: human PD brain-derived alpha-synuclein aggregates; for inhibition at 0.1 µM: 100 nM non-radiolabelled compound, read-out: Micro-radiobinding competition assay Competition at 100 nM (%); for inhibition at 0.1 µM / inhibition at 1 µM: competition over tritiated [3H]-Example-1 ligand; for inhibition at 1 µM: 1 μM non-radiolabelled compound, read-out: Micro-radiobinding competition assay Competition at 1 μM (%)
Description: The procedure was adapted from the protocol described in Spillantini et al., 1998. Frozen tissue blocks from PD donors were thawed on ice and homogenized using a glass dounce homogenizer. The homogenate was then centrifuged at 11,000×g (12,700 RPM) in an ultracentrifuge (Beckman, XL100K) for 20 minutes at 4° C. using a pre-cooled 70.1 rotor (Beckman, 342184). Pellets were resuspended in extraction buffer [10 mM Tris-HCl pH 7.4, 10% sucrose, […], 1% protease inhibitor (Calbiochem 539131), 1 mM EGTA, 1% phosphatase inhibitor (Sigma P5726 and P0044)] and centrifuged at 15,000×g (14,800 RPM, a 70.1 Ti rotor) for 20 minutes at 4° C. Pellets were discarded and sarkosyl (20% stock solution, Sigma L7414) was added to the supernatants to a final concentration of 1% at room temperature for one hour. This solution was then centrifuged at 100,000×g (38,000 RPM, 70.1 Ti rotor) for one hour at 4° C. Pellets containing enriched alpha-synuclein aggregates were resuspended in PBS and stored at −80° C. until use.
PD brain-derived alpha-synuclein aggregates were spotted onto microarray slides. The slides were incubated with [^3H]-alpha-synuclein reference at 6 nM or 20 nM and the example compounds (non-radiolabelled) at 1 μM and 100 nM. In some cases, the non-radiolabelled example compounds were further assessed for a range of different concentrations, varying from 0.05 nM to 2 μM. After incubation, slides were washed and scanned by a real-time autoradiography system (BeaQuant, ai4R). Quantification of the signal was performed by using the Beamage image analysis software (ai4R). Non-specific signal was determined with an excess of non-radiolabelled Example-1 (2 μM) and specific binding was calculated by subtracting the non-specific signal from the total signal. Competition was calculated as percent, where 0% was defined as the specific binding in the presence of vehicle and 100% as the values obtained in the presence of excess of the non-radiolabelled Example-1. Ki values were calculated in GraphPad Prism7 by applying a nonlinear regression curve fit using a one site, specific binding model. All measurements were performed with at least two technical replicates. For compounds tested in more than one experiment, the mean of the replicates or Ki values in independent experiments is reported.
Results: Example compounds were assessed for their potency to compete with the binding of [^3H]-reference alpha-synuclein ligand to PD patient brain-derived alpha-synuclein aggregates. Results of the micro-radiobinding competition assay for the example compounds tested are shown in Table 3 as: % competition at 1 μM and 100 nM.
Table 3: Assessment of binding affinity by micro-radiobinding competition assay on human PD brain-derived alpha-synuclein aggregates. Percent (%) competition over the tritiated [^3H]-Example-1 ligand in the presence of 1 μM and 100 nM of example compounds 1-9. Ki values are also shown for selected example compounds. *, mean of Ki values in two independent experiments using PD brain-derived homogenates from two different donors.

[6] = molecular target: T4, Abeta pathological aggregates (Homo sapiens, UniProt P05067); test: Radiobinding competition assay on AD brain homogenates, displacement of [3H]-Abeta-Ref; format: binding
T4 construct: Abeta pathological aggregates present in the human AD brain homogenates; from tissue; host or cells: human AD donor brain, Triton/sucrose-insoluble fraction
T4 sequence (P05067 672-713 limits assumed): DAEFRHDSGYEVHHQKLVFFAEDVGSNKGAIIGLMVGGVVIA
Description: The procedure was adapted from the protocol described in Bagchi et al., 2013. Frozen tissue blocks from AD donors were thawed on ice and homogenized in high salt buffer (50 mM Tris-HCl pH 7.5, 0.75M NaCl, 5 mM EDTA) supplemented with protease inhibitors (Complete; Roche 11697498001) at 4° C. using a glass Dounce homogenizer. The homogenate was centrifuged at 100,000×g (38,000 RPM) in an ultracentrifuge (Beckman, XL100K) for one hour at 4° C. using a pre-cooled 70.1 rotor (Beckman, 342184). Pellets were resuspended in high salt buffer supplemented with 1% Triton X-100 and homogenized at 4° C. using a glass Dounce homogenizer. […]
A fixed concentration of AD insoluble fraction was incubated with a tritiated reference Abeta ligand ([^3H]-Abeta-Ref) at 10 nM and increasing concentrations of non-radiolabelled example compound 1 in the range of […] to 2 μM for two hours at RT. […] The filters were analyzed on a Microbeta2 scintillation counter (PerkinElmer). Non-specific signal was determined with an excess of non-radiolabelled reference ligand (2 μM) and specific binding was calculated by subtracting the non-specific signal from the total signal. Competition was calculated as percent, where 0% was defined as the specific binding in the presence of vehicle and 100% as the values obtained in the presence of excess of the non-radiolabelled reference ligand. […]

Target engagement on Lewy bodies and Lewy neurites (silver grains co-localized with a-syn-pS129) [1] | Kd [2] [nM] | Autoradiography signal in a genetic PD case ([3]; 2.5 nM to 80 nM, SNCA (G51D) brain sections) | Kd ([3]; human brain tissue sections, familial PD case (SNCA G51D missense mutation), autoradiography) [nM] | Autoradiographic signal in non-demented control cases ([4]; non-demented control (NDC) brain sections) | Target engagement in alpha-synucleinopathy tissues by autoradiography ([4]; one PDD, one LBV and one MSA case) | Compound | Selectivity for alpha-synuclein over Tau pathological aggregates (Tau aggregates; AD brain tissue) | Target engagement on Tau aggregates in AD brain tissue (Tau aggregates; AD tissue, compared to reference Tau ligand [3H]-Tau-Ref) | inhibition at 0.1 µM [5] [%] | inhibition at 1 µM [5] [%] | Ki ([5]; * = mean of two independent experiments, two donors) [nM] | Ki ([6]; displacement of [3H]-Abeta-Ref (10 nM) on AD brain-derived homogenates) [nM] | Selectivity for alpha-synuclein over Abeta pathological aggregates ([6]; human AD brain homogenates versus PD brain binding affinity)
strong target engagement | 18 | dose-dependent autoradiography signal | 44 | very weak | displayed target engagement | [3H]c1cncc(N2Cc3cc(-c4cnc(N5CC[C@H](F)C5)c([3H])c4)nn3C2=O)c1 [[^3H]-Example-1] | good selectivity for alpha-synuclein over Tau | did not display specific target engagement; also recorded: No accumulation of silver grains |  |  |  |  | 
 |  |  |  |  |  | O=C1N(c2cccnc2)Cc2cc(-c3ccc(N4CC[C@H](F)C4)nc3)nn21 [Example 1, (S)-2-(6-(3-fluoropyrrolidin-1-yl)pyridin-3-yl)-5-(pyridin-3-yl)-4H-imidazo[1,5-b]pyrazol-6(5H)-one hydrochloride] |  |  | 56 | 91 | 69 | 360 | good selectivity
 |  |  |  |  |  | O=C1N(c2cncs2)Cc2cc(-c3ccc(OCCF)nc3)nn21 [Example 23, 2-(6-(2-fluoroethoxy)pyridin-3-yl)-5-(thiazol-5-yl)-4,5-dihydro-6H-imidazo [1,5-b] pyrazol-6-one hydrogen chloride salt] |  |  | 31 | 82 |  |  | 
